{
  "source": "ChEMBL document CHEMBL1201862",
  "about": "“PubChem BioAssay data set” (2004)",
  "assay_in_all_cases": "growth of human tumour cells (NCI), 48 h",
  "key": {"HL-60": {"test_system": "HL-60"}, "HCC 2998": {"test_system": "HCC 2998"}, "SNB-19": {"test_system": "SNB-19"}, "OVCAR-5": {"test_system": "OVCAR-5"}, "EKVX": {"test_system": "EKVX"}, "OVCAR-4": {"test_system": "OVCAR-4"}, "HT-29": {"test_system": "HT-29"}, "786-0": {"test_system": "786-0"}, "LXFL 529": {"test_system": "LXFL 529"}, "HCT-116": {"test_system": "HCT-116"}, "NCI-H522": {"test_system": "NCI-H522"}, "KM-20L2": {"test_system": "KM-20L2"}, "NCI-H226": {"test_system": "NCI-H226"}, "LOX IMVI": {"test_system": "LOX IMVI"}, "Malme-3M": {"test_system": "Malme-3M"}, "IGROV-1": {"test_system": "IGROV-1"}, "UACC-257": {"test_system": "UACC-257"}, "MOLT-4": {"test_system": "MOLT-4"}, "A549": {"test_system": "A549"}, "SW-620": {"test_system": "SW-620"}, "NCI-H460": {"test_system": "NCI-H460"}, "DMS-114": {"test_system": "DMS-114"}, "OVCAR-3": {"test_system": "OVCAR-3"}, "CCRF-CEM": {"test_system": "CCRF-CEM"}, "DMS-273": {"test_system": "DMS-273"}, "A498": {"test_system": "A498"}, "HOP-62": {"test_system": "HOP-62"}, "DLD-1": {"test_system": "DLD-1"}, "K562": {"test_system": "K562"}, "SNB-78": {"test_system": "SNB-78"}, "SK-MEL-28": {"test_system": "SK-MEL-28"}, "UO-31": {"test_system": "UO-31"}, "OVCAR-8": {"test_system": "OVCAR-8"}, "SF-295": {"test_system": "SF-295"}, "SF-268": {"test_system": "SF-268"}, "SK-MEL-5": {"test_system": "SK-MEL-5"}, "M19-MEL": {"test_system": "M19-MEL"}, "RXF 393": {"test_system": "RXF 393"}, "KM12": {"test_system": "KM12"}, "TK-10": {"test_system": "TK-10"}, "SR": {"test_system": "SR"}, "XF498": {"test_system": "XF498"}, "COLO 205": {"test_system": "COLO 205"}, "RPMI-8226": {"test_system": "RPMI-8226"}, "U-251": {"test_system": "U-251"}, "ACHN": {"test_system": "ACHN"}, "SN12C": {"test_system": "SN12C"}, "HCT-15": {"test_system": "HCT-15"}, "NCI-H23": {"test_system": "NCI-H23"}},
  "note": "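All cell lines were grown in 96-well plates and treated with compound for 48 hours. GI50 is the concentration that inhibits growth by half.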 The source made the active and inactive calls. No stated cut-off is given here; in the data, active = GI50 up to about 1.1 µM and inactive = higher.",
  "data": [
    {"smiles": "Nc1nc(SCc2ccc([N+](=O)[O-])cc2)nc2c1ncn2C1OC(CO)C(O)C1O", "note": "(centres undefined)", "values": [
      {"measurement": "GI50", "setting": "HL-60", "value": "> 100 µM (inactive)"},
      {"measurement": "GI50", "setting": "HCC 2998", "value": "> 100 µM (inactive)"},
      {"measurement": "GI50", "setting": "SNB-19", "value": "> 100 µM (inactive)"},
      {"measurement": "GI50", "setting": "OVCAR-5", "value": "> 100 µM (inactive)"},
      {"measurement": "GI50", "setting": "EKVX", "value": "> 100 µM (inactive)"},
      {"measurement": "GI50", "setting": "OVCAR-4", "value": "> 100 µM (inactive)"},
      {"measurement": "GI50", "setting": "HT-29", "value": "> 100 µM (inactive)"},
      {"measurement": "GI50", "setting": "786-0", "value": "> 100 µM (inactive)"},
      {"measurement": "GI50", "setting": "LXFL 529", "value": "78.5 µM (inactive)"},
      {"measurement": "GI50", "setting": "HCT-116", "value": "> 100 µM (inactive)"},
      {"measurement": "GI50", "setting": "NCI-H522", "value": "89.5 µM (inactive)"},
      {"measurement": "GI50", "setting": "KM-20L2", "value": "> 100 µM (inactive)"},
      {"measurement": "GI50", "setting": "NCI-H226", "value": "> 100 µM (inactive)"},
      {"measurement": "GI50", "setting": "LOX IMVI", "value": "> 100 µM (inactive)"},
      {"measurement": "GI50", "setting": "Malme-3M", "value": "> 100 µM (inactive)"},
      {"measurement": "GI50", "setting": "IGROV-1", "value": "> 100 µM (inactive)"},
      {"measurement": "GI50", "setting": "UACC-257", "value": "> 100 µM (inactive)"},
      {"measurement": "GI50", "setting": "MOLT-4", "value": "> 100 µM (inactive)"},
      {"measurement": "GI50", "setting": "A549", "value": "> 100 µM (inactive)"},
      {"measurement": "GI50", "setting": "SW-620", "value": "> 100 µM (inactive)"},
      {"measurement": "GI50", "setting": "NCI-H460", "value": "> 100 µM (inactive)"},
      {"measurement": "GI50", "setting": "DMS-114", "value": "> 100 µM (inactive)"},
      {"measurement": "GI50", "setting": "OVCAR-3", "value": "> 100 µM (inactive)"},
      {"measurement": "GI50", "setting": "CCRF-CEM", "value": "> 100 µM (inactive)"},
      {"measurement": "GI50", "setting": "DMS-273", "value": "> 100 µM (inactive)"},
      {"measurement": "GI50", "setting": "A498", "value": "> 100 µM (inactive)"},
      {"measurement": "GI50", "setting": "HOP-62", "value": "> 100 µM (inactive)"},
      {"measurement": "GI50", "setting": "DLD-1", "value": "> 100 µM (inactive)"},
      {"measurement": "GI50", "setting": "K562", "value": "> 100 µM (inactive)"},
      {"measurement": "GI50", "setting": "SNB-78", "value": "> 100 µM (inactive)"},
      {"measurement": "GI50", "setting": "SK-MEL-28", "value": "> 100 µM (inactive)"},
      {"measurement": "GI50", "setting": "UO-31", "value": "> 100 µM (inactive)"},
      {"measurement": "GI50", "setting": "OVCAR-8", "value": "> 100 µM (inactive)"},
      {"measurement": "GI50", "setting": "SF-295", "value": "> 100 µM (inactive)"},
      {"measurement": "GI50", "setting": "SF-268", "value": "> 100 µM (inactive)"},
      {"measurement": "GI50", "setting": "SK-MEL-5", "value": "> 100 µM (inactive)"},
      {"measurement": "GI50", "setting": "M19-MEL", "value": "> 100 µM (inactive)"},
      {"measurement": "GI50", "setting": "RXF 393", "value": "> 100 µM (inactive)"},
      {"measurement": "GI50", "setting": "KM12", "value": "> 100 µM (inactive)"},
      {"measurement": "GI50", "setting": "TK-10", "value": "> 100 µM (inactive)"},
      {"measurement": "GI50", "setting": "SR", "value": "> 100 µM (inactive)"},
      {"measurement": "GI50", "setting": "XF498", "value": "> 100 µM (inactive)"},
      {"measurement": "GI50", "setting": "COLO 205", "value": "> 100 µM (inactive)"},
      {"measurement": "GI50", "setting": "RPMI-8226", "value": "> 100 µM (inactive)"},
      {"measurement": "GI50", "setting": "U-251", "value": "> 100 µM (inactive)"},
      {"measurement": "GI50", "setting": "ACHN", "value": "> 100 µM (inactive)"},
      {"measurement": "GI50", "setting": "SN12C", "value": "96.6 µM (inactive)"},
      {"measurement": "GI50", "setting": "HCT-15", "value": "> 100", "unit": "µM"},
      {"measurement": "GI50", "setting": "NCI-H23", "value": "> 100 µM (inactive)"}
    ]}
  ]
}
